Positions of bridges follow the written chain, without caps; N, C: chain ends. Non-standard residues stand in square brackets, D forms with d. Residues, ends and D or L forms follow the SMILES beside them. Chains are numbered I, II in the order given. No end group written: not given here. *: point of attachment. Glutathionyl = N[C@@H](CCC(=O)N[C@@H](CS*)C(=O)NCC(=O)O)C(=O)O; Hyp = O=C(O)[C@@H]1C[C@@H](O)CN1
Legend:
hNaV1.7 = hNaV1.7 (Homo sapiens, UniProt Q15858); assay type: cell-based
rNav 1.7 = rNav 1.7 (Rattus norvegicus, UniProt O08562); assay: cell-based; assay type: cell-based
[1] = read-out: rNav 1.7 % block peptide concentration

Chain of rNav 1.7 (O08562 whole entry, looked up): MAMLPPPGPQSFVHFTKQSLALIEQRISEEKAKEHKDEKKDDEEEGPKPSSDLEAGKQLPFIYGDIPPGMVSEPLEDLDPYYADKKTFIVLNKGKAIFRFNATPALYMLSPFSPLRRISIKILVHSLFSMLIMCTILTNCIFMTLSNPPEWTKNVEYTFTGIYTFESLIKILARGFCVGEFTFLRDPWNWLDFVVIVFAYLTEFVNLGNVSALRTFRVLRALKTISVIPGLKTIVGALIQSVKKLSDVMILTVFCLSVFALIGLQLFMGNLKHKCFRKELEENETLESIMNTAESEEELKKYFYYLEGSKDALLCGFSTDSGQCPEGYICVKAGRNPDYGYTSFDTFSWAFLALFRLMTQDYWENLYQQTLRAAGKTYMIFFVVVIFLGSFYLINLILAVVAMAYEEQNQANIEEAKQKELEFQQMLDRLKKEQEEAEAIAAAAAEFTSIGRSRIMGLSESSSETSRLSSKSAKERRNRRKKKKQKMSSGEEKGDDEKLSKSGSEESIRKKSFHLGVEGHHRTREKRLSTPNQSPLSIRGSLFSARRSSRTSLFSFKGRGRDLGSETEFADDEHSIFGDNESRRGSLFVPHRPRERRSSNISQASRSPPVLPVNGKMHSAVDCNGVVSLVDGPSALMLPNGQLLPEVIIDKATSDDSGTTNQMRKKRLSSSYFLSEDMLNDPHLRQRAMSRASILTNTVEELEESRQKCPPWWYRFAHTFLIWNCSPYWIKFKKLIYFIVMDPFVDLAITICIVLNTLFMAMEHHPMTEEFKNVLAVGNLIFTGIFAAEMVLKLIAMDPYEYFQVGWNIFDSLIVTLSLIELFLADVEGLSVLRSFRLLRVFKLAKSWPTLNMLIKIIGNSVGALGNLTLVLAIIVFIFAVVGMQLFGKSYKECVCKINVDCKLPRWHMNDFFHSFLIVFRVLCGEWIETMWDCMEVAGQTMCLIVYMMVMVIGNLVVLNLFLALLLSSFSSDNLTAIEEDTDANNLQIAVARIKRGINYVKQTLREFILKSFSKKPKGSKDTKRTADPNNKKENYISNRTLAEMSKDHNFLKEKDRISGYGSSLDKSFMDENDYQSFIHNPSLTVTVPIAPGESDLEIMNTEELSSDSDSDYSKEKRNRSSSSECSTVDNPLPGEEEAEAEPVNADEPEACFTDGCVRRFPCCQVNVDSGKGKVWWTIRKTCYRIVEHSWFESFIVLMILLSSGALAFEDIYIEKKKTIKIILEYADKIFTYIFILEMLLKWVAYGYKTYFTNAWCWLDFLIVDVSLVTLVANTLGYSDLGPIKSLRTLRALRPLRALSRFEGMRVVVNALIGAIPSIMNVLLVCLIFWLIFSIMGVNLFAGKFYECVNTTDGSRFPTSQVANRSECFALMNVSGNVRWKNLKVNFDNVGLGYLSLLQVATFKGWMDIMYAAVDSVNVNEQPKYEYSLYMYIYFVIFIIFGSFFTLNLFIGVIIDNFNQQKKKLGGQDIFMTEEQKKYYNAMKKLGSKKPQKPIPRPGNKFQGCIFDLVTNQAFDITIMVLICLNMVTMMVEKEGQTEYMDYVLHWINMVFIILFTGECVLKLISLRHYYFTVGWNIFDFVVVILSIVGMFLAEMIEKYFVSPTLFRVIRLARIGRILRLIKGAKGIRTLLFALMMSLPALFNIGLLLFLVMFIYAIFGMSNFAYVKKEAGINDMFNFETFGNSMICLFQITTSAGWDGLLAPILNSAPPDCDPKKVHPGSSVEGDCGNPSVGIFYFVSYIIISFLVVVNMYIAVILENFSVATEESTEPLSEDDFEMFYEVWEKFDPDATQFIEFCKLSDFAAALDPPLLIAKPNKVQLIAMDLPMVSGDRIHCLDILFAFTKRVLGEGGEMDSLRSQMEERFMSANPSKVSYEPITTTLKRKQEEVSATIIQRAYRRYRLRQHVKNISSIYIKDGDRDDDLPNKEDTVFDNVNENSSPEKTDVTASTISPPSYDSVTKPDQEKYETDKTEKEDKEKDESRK
Chain of hNaV1.7 (Q15858 whole entry, looked up): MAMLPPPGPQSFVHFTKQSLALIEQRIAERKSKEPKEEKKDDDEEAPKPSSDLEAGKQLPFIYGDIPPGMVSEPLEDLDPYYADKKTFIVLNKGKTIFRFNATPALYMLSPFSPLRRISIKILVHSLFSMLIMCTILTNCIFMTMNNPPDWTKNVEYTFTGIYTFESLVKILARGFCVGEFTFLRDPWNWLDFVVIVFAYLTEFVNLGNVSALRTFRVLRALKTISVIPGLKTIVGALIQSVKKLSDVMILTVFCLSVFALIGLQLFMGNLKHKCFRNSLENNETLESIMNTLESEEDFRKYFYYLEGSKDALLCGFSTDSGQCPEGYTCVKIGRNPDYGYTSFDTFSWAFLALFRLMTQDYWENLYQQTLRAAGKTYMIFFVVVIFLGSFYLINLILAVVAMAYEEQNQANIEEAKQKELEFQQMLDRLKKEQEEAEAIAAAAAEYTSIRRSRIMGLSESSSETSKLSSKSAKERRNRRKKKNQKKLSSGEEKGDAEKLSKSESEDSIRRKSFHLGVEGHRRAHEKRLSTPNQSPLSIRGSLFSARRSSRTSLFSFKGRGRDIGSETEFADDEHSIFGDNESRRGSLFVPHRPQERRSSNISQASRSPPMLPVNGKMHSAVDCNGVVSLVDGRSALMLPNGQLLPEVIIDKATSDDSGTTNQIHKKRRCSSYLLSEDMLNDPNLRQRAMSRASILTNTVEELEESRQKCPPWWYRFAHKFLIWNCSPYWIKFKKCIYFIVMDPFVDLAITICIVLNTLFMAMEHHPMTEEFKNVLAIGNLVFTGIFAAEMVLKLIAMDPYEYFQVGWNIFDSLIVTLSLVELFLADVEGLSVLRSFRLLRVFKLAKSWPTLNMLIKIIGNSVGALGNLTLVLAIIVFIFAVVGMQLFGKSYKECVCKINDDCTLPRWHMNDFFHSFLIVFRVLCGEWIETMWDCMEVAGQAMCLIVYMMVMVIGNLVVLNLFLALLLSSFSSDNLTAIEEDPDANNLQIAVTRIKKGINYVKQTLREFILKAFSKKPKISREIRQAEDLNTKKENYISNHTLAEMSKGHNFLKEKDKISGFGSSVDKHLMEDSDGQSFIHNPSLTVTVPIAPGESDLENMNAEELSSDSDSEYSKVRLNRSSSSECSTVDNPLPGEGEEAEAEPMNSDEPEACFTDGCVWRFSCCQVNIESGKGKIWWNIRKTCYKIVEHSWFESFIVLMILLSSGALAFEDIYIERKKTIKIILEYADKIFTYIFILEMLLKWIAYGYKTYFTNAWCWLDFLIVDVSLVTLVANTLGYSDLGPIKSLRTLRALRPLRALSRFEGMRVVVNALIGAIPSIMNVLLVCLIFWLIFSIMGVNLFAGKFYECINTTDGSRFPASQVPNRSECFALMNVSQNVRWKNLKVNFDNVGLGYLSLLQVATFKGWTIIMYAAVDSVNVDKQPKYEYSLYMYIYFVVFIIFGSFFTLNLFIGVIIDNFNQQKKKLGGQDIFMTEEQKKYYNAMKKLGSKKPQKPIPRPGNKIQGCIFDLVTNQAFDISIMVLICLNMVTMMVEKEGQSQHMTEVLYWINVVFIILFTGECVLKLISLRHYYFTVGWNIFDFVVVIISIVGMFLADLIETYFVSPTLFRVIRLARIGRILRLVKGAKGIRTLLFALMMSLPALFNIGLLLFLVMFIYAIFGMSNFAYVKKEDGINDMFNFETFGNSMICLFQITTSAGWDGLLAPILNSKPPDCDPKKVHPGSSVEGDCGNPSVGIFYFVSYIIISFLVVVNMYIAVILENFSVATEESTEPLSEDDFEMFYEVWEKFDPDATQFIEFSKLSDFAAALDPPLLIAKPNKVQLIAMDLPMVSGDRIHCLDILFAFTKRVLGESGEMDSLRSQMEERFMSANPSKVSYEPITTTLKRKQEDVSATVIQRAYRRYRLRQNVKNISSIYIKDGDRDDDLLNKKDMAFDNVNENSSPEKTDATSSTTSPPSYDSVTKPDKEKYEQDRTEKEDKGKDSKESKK

DWCGDAGDACGTLKLRCCSGLCNQYSGTCTG [C. geo2]
% block of hNaV1.7 (hNaV1.7): 69%

CC(C)C[C@@H]1NC(=O)[C@H](CCCCN)NC(=O)CNC(=O)[C@@H]2CSSC[C@@H]3NC(=O)[C@H](Cc4ccccc4)NC(=O)CNC(=O)[C@H](CO)NC(=O)[C@H](CSSC[C@H](NC(=O)[C@H](Cc4c[nH]c5ccccc45)NC(=O)CN)C(=O)NCC(=O)N[C@@H](CC(=O)O)C(=O)N4C[C@H](O)C[C@H]4C(=O)NCC(=O)N[C@@H](C)C(=O)N[C@@H]([C@@H](C)O)C(=O)N2)NC(=O)[C@H](CSSC[C@@H](C(=O)N[C@@H](CCCCN)C(=O)N[C@@H](CC(=O)O)C(=O)N[C@@H](CCCCN)C(=O)N[C@@H](CO)C(=O)N[C@@H](CO)C(=O)N[C@@H](C)C(=O)O)NC(=O)[C@H]([C@@H](C)O)NC(=O)[C@H](CCCCN)NC(=O)[C@H]([C@@H](C)O)NC(=O)[C@H](Cc2ccc(O)cc2)NC(=O)[C@H](CCC(=O)O)NC(=O)[C@H](CC(=O)O)NC3=O)NC(=O)[C@H](Cc2ccc(O)cc2)NC(=O)[C@H](CC(C)C)NC(=O)[C@H](CCCNC(=N)N)NC1=O [C.geo1[C24E]] (H-GWCGD[Hyp]GATCGKLRLYCCSGFCDEYTKTCKDKSSA-OH; disulfide 3-18, 10-22, 17-29)
inhibition at 33 µM (rNav 1.7; [1]): 15%

CC(C)C[C@@H]1NC(=O)[C@H](CCCCN)NC(=O)CNC(=O)[C@@H]2CSSC[C@@H]3NC(=O)[C@H](Cc4ccccc4)NC(=O)CNC(=O)[C@H](CO)NC(=O)[C@H](CSSC[C@H](NC(=O)[C@H](Cc4c[nH]c5ccccc45)NC(=O)CN)C(=O)NCC(=O)N[C@@H](CC(=O)O)C(=O)N4C[C@H](O)C[C@H]4C(=O)NCC(=O)N[C@@H](C)C(=O)N[C@@H]([C@@H](C)O)C(=O)N2)NC(=O)[C@H](CSSC[C@@H](C(=O)N[C@@H](CCCCN)C(=O)N[C@@H](CC(=O)O)C(=O)N[C@@H](CCCCN)C(=O)N[C@@H](CO)C(=O)N[C@@H](CO)C(=O)N[C@@H](C)C(=O)O)NC(=O)[C@H]([C@@H](C)O)NC(=O)CNC(=O)[C@H]([C@@H](C)O)NC(=O)[C@H](Cc2ccc(O)cc2)NC(=O)[C@H](CSSC[C@H](NC(=O)CC[C@H](N)C(=O)O)C(=O)NCC(=O)O)NC(=O)[C@H](CC(=O)O)NC3=O)NC(=O)[C@H](Cc2ccc(O)cc2)NC(=O)[C@H](CC(C)C)NC(=O)[C@H](CCCNC(=N)N)NC1=O [C.geeo1[K27G]]
inhibition at 33 µM (rNav 1.7; [1]): 60%

CC[C@@H]1NC(=O)[C@H](CC(=O)O)NC(=O)[C@@H]2CSSC[C@@H]3NC(=O)[C@H]([C@@H](C)O)NC(=O)[C@H](C)NC(=O)CNC(=O)[C@@H]4C[C@@H](O)CN4C(=O)[C@H](CC(=O)O)NC(=O)CNC(=O)[C@@H](NC(=O)[C@H](Cc4c[nH]c5ccccc45)NC(=O)CN)CSSC[C@H](NC(=O)[C@H](CSSC[C@@H](C(=O)N[C@@H](CCCCN)C(=O)N[C@@H](CC(=O)O)C(=O)N[C@@H](CCCCN)C(=O)N[C@@H](CO)C(=O)N[C@@H](CO)C(=O)N[C@@H](C)C(=O)O)NC(=O)[C@H]([C@@H](C)O)NC(=O)[C@H](CCCCN)NC(=O)[C@H]([C@@H](C)O)NC(=O)[C@H](Cc4ccc(O)cc4)NC1=O)NC(=O)[C@H](Cc1ccc(O)cc1)NC(=O)[C@H](CC(C)C)NC(=O)[C@H](CCCNC(=N)N)NC(=O)[C@H](CC(C)C)NC(=O)[C@H](CCCCN)NC(=O)CNC3=O)C(=O)N[C@@H](CO)C(=O)NCC(=O)N[C@@H](Cc1ccccc1)C(=O)N2 [C.geo1[C24Abu]]
inhibition at 33 µM (rNav 1.7; [1]): 20%

CC(C)C[C@@H]1NC(=O)[C@H](CCCCN)NC(=O)CNC(=O)[C@@H]2CSSC[C@@H]3NC(=O)[C@H](Cc4ccccc4)NC(=O)CNC(=O)[C@H](CO)NC(=O)[C@H](CSSC[C@H](NC(=O)[C@H](Cc4c[nH]c5ccccc45)NC(=O)CN)C(=O)NCC(=O)N[C@@H](CC(=O)O)C(=O)N4C[C@H](O)C[C@H]4C(=O)NCC(=O)N[C@@H](C)C(=O)N[C@@H]([C@@H](C)O)C(=O)N2)NC(=O)[C@H](CSSC[C@@H](C(=O)N[C@@H](CCCCN)C(=O)N[C@@H](CC(=O)O)C(=O)N[C@@H](CCCCN)C(=O)N[C@@H](CO)C(=O)N[C@@H](CO)C(=O)N[C@@H](C)C(=O)O)NC(=O)[C@H]([C@@H](C)O)NC(=O)[C@H](CCCCN)NC(=O)[C@H]([C@@H](C)O)NC(=O)[C@H](Cc2ccc(O)cc2)NC(=O)[C@H](CO)NC(=O)[C@H](CC(=O)O)NC3=O)NC(=O)[C@H](Cc2ccc(O)cc2)NC(=O)[C@H](CC(C)C)NC(=O)[C@H](CCCNC(=N)N)NC1=O [C.geo1[C24S]] (H-GWCGD[Hyp]GATCGKLRLYCCSGFCDSYTKTCKDKSSA-OH; disulfide 3-18, 10-22, 17-29)
inhibition at 33 µM (rNav 1.7; [1]): 20%

I: GWCGD[Hyp]GATCGKLRLYCCSGFCDCYTKTCKDKSSA / II: GWCGD[Hyp]GATCGKLRLYCCSGFCDCYTKTCKDKSSA (disulfide I:3-I:18, I:10-I:22, I:17-I:29, I:24-II:24, II:3-II:18, II:10-II:22, II:17-II:29) [C.geo1[dimer]]
inhibition at 30 µM (rNav 1.7; [1]): 70%

GWCGDOGATCGKLRLYCCSGFCD(Abu)YTKTCKDKS_A [C. geo1[C24Abu,des-Ser34]]
% block of NaV1.7 from rat (rNav 1.7): 20% | reversibility of NaV1.7 block (rNav 1.7): quickly reversible

CC(=O)NCSC[C@@H]1NC(=O)[C@H](CC(=O)O)NC(=O)[C@@H]2CSSC[C@@H]3NC(=O)[C@H]([C@@H](C)O)NC(=O)[C@H](C)NC(=O)CNC(=O)[C@@H]4C[C@@H](O)CN4C(=O)[C@H](CC(=O)O)NC(=O)CNC(=O)[C@@H](NC(=O)[C@H](Cc4c[nH]c5ccccc45)NC(=O)CN)CSSC[C@H](NC(=O)[C@H](CSSC[C@@H](C(=O)N[C@@H](CCCCN)C(=O)N[C@@H](CC(=O)O)C(=O)N[C@@H](CCCCN)C(=O)N[C@@H](CO)C(=O)N[C@@H](CO)C(=O)N[C@@H](C)C(=O)O)NC(=O)[C@H]([C@@H](C)O)NC(=O)[C@H](CCCCN)NC(=O)[C@H]([C@@H](C)O)NC(=O)[C@H](Cc4ccc(O)cc4)NC1=O)NC(=O)[C@H](Cc1ccc(O)cc1)NC(=O)[C@H](CC(C)C)NC(=O)[C@H](CCCNC(=N)N)NC(=O)[C@H](CC(C)C)NC(=O)[C@H](CCCCN)NC(=O)CNC3=O)C(=O)N[C@@H](CO)C(=O)NCC(=O)N[C@@H](Cc1ccccc1)C(=O)N2 [C.geo1[C24Cys(Acm)]]
inhibition at 33 µM (rNav 1.7; [1]): 70%

CC(C)C[C@@H]1NC(=O)[C@H](CCCCN)NC(=O)CNC(=O)[C@@H]2CSSC[C@@H]3NC(=O)[C@H](Cc4ccccc4)NC(=O)CNC(=O)[C@H](CO)NC(=O)[C@H](CSSC[C@H](NC(=O)[C@H](Cc4c[nH]c5ccccc45)NC(=O)CN)C(=O)NCC(=O)N[C@@H](CC(=O)O)C(=O)N4C[C@H](O)C[C@H]4C(=O)NCC(=O)N[C@@H](C)C(=O)N[C@@H]([C@@H](C)O)C(=O)N2)NC(=O)[C@H](CSSC[C@@H](C(=O)N[C@@H](CCCCN)C(=O)N[C@@H](CC(=O)O)C(=O)N[C@@H](CCCCN)C(=O)N[C@@H](CO)C(=O)N[C@@H](CO)C(=O)N[C@@H](C)C(=O)O)NC(=O)[C@H]([C@@H](C)O)NC(=O)[C@H](CCCCN)NC(=O)[C@H]([C@@H](C)O)NC(=O)[C@H](Cc2ccc(O)cc2)NC(=O)[C@H](CCCCN)NC(=O)[C@H](CC(=O)O)NC3=O)NC(=O)[C@H](Cc2ccc(O)cc2)NC(=O)[C@H](CC(C)C)NC(=O)[C@H](CCCNC(=N)N)NC1=O [C.geo1[C24K]] (H-GWCGD[Hyp]GATCGKLRLYCCSGFCDKYTKTCKDKSSA-OH; disulfide 3-18, 10-22, 17-29)
inhibition at 33 µM (rNav 1.7; [1]): 20%

CC(C)C[C@@H]1NC(=O)[C@H](CCCCN)NC(=O)CNC(=O)[C@@H]2CSSC[C@@H]3NC(=O)[C@H](Cc4ccccc4)NC(=O)CNC(=O)[C@H](CO)NC(=O)[C@H](CSSC[C@H](NC(=O)[C@H](Cc4c[nH]c5ccccc45)NC(=O)CN)C(=O)NCC(=O)N[C@@H](CC(=O)O)C(=O)N[C@@H](C)C(=O)NCC(=O)N[C@@H](C)C(=O)N[C@@H]([C@@H](C)O)C(=O)N2)NC(=O)[C@H](CSSC[C@@H](C(=O)N[C@@H](CCCCN)C(=O)N[C@@H](CC(=O)O)C(=O)N[C@@H](CCCCN)C(=O)N[C@@H](CO)C(=O)N[C@@H](CO)C(=O)N[C@@H](C)C(=O)O)NC(=O)[C@H]([C@@H](C)O)NC(=O)[C@H](CCCCN)NC(=O)[C@H]([C@@H](C)O)NC(=O)[C@H](Cc2ccc(O)cc2)NC(=O)[C@H](CSSC[C@H](NC(=O)CC[C@H](N)C(=O)O)C(=O)NCC(=O)O)NC(=O)[C@H](CC(=O)O)NC3=O)NC(=O)[C@H](Cc2ccc(O)cc2)NC(=O)[C@H](CC(C)C)NC(=O)[C@H](CCCNC(=N)N)NC1=O [C.geo1[O6A]] (H-GWCGDAGATCGKLRLYCCSGFCDC(Glutathionyl)YTKTCKDKSSA-OH; disulfide 3-18, 10-22, 17-29)
inhibition at 33 µM (rNav 1.7; [1]): 60%

CVGRDSKCGPPPCCMGMTCNYERVRKCT [SEQ ID 025]
activity against hNav1.7 (hNaV1.7): not active | activity against rNav1.7 (rNav 1.7): not active
